Experiment [1] addresses Casein kinase I isoform alpha (Homo sapiens, UniProt P48729). Put plainly: Selectivity interaction (ProQinase) EUB0000171b CSNK1A1.
Experiment [2] addresses T1, Ankyrin repeat and protein kinase domain-containing protein 1 (Homo sapiens) (UniProt Q8NFD2).
T1 sequence (whole entry): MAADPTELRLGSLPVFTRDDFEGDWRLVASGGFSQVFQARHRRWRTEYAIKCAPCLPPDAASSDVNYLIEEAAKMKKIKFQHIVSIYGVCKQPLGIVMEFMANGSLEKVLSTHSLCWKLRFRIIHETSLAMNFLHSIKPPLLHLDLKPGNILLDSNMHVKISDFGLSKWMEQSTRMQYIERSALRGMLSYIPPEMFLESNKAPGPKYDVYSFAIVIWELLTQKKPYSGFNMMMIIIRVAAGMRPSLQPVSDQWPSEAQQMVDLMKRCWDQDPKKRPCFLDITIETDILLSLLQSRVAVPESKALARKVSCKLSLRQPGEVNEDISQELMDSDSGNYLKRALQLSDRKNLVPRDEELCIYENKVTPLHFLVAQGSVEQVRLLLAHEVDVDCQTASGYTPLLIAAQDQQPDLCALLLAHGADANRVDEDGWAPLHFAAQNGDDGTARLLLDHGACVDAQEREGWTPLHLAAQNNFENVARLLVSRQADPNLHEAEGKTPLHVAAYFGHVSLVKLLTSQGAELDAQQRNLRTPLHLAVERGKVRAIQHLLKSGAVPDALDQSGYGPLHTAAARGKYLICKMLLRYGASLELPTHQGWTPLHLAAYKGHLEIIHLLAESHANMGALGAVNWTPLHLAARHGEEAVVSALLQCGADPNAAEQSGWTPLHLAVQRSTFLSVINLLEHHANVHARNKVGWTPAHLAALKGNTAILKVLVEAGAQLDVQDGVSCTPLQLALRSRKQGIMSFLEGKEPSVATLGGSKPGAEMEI
Put plainly: Selectivity interaction (KinomeScan (DiscoverX)) EUB0001049a ANKK1. Particulars: at 1 µM.

In experiment [3] the target is T2, Ephrin type-B receptor 4 (Homo sapiens) (UniProt P54760).
T2 sequence (whole entry): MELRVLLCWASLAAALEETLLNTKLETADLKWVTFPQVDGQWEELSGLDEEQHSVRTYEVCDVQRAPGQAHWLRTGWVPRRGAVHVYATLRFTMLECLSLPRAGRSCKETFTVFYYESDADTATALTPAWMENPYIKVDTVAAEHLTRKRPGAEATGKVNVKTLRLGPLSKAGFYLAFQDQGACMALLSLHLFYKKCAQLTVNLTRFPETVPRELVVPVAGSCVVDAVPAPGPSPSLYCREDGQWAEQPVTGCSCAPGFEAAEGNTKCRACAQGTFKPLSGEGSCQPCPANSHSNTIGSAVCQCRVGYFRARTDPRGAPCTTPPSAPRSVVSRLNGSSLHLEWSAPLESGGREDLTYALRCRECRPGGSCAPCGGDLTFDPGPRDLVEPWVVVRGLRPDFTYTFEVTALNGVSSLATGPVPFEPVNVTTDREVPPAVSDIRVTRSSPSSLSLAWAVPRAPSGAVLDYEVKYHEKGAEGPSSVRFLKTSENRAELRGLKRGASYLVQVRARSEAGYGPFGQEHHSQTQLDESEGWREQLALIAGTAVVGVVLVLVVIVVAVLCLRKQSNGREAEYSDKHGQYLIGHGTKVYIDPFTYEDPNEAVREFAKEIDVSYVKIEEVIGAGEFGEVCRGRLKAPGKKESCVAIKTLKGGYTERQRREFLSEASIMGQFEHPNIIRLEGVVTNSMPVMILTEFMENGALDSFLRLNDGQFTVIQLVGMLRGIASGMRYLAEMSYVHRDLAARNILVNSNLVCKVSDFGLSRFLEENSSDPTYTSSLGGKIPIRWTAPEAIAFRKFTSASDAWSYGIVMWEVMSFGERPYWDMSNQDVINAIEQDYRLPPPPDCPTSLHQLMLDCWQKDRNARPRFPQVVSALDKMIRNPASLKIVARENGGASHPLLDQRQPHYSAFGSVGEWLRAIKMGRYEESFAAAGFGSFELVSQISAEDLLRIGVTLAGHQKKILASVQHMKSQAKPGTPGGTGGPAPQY
The experiment can be described thus: Selectivity interaction (SelectScreen profiling (Invitrogen)) EUB0000607a EPHB4. Particulars: at 2 µM.

In experiment [4] the target is T3, Ephrin type-A receptor 1 (Homo sapiens) (UniProt P21709).
T3 sequence (whole entry): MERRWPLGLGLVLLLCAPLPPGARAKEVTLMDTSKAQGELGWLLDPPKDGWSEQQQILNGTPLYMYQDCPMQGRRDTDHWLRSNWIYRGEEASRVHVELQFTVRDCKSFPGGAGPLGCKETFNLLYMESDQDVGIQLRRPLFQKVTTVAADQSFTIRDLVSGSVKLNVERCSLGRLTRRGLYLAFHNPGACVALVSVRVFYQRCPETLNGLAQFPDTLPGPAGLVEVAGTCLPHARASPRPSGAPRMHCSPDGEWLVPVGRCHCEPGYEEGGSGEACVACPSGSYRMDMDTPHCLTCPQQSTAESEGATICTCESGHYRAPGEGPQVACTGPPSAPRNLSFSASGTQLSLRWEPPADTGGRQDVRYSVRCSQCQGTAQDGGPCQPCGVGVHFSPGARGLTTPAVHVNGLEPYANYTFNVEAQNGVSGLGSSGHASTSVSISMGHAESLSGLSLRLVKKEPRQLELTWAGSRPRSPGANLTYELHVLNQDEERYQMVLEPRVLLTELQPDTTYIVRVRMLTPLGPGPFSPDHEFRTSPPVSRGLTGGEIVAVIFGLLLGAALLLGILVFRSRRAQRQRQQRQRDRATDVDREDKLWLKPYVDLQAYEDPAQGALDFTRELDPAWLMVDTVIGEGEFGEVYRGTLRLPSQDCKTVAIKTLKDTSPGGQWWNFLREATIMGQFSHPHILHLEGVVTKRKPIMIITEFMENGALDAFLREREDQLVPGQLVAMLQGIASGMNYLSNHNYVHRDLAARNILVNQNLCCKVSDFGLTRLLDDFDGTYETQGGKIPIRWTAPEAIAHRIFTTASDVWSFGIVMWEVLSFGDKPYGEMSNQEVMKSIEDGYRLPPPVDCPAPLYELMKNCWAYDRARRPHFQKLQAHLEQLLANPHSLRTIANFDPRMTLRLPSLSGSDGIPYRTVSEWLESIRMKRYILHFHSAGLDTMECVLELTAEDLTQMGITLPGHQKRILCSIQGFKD
Put plainly: Selectivity interaction (KinomeScan (DiscoverX)) EUB0000607a EPHA1. As to conditions: at 10 µM.

Casein kinase I isoform alpha, sequence (P48729 2-337 limits assumed): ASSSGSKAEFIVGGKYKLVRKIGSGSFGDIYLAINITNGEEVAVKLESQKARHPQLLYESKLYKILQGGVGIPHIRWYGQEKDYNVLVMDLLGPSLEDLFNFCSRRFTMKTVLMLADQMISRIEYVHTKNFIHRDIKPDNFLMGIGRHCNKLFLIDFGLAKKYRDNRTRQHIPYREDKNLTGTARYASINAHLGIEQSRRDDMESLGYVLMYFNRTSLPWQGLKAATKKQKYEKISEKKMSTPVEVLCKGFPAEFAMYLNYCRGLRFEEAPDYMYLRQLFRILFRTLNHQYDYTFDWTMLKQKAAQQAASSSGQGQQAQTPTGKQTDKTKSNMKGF

As to `C=CC(=O)Nc1cccc(C(=O)Nc2ccc(Nc3cc(-c4[nH]c(SC)nc4C)ccn3)cc2)c1`, the figures for the % of control in experiment [1] (at 1 µM) and in experiment [1] (at 5 µM) were 70% and 38%, respectively.
For `COc1cc(Nc2nc(C)cc(-c3cnn4nc(OC)ccc34)n2)cc(C(F)(F)F)c1`, the % of control in experiment [2] worked out at 70%.
With `CNC(=O)Nc1ccc(-c2nc(N3CC4CCC(C3)O4)c3cnn(C4CCC5(CC4)OCCO5)c3n2)cc1`, in experiment [3], the % of inhibition is -4%. Moreover, the % of control in experiment [4] was 81%.
